Results on one molecule are retold here after patent US11000604B2, “Reagent for site-selective bioconjugation of proteins or antibodies” (Research Foundation of the City University of New York, priority 2017, dated 2021).

Holding throughout (format): physicochemical
The nature of data set [1]: Stability of PODS solutions in DMSO. Particulars: solution in DMSO, room temperature. As for the experimental part: All intermediates were obtained in >95% purity using minimal equipment and simple procedures without chromatographic purifications. The methyl thioether 1 was obtained quantitatively via the methylation of the thiol with methyl iodide; unfortunately, we were not able to replace the use of the toxic methyl iodide with any safer reagent. The coupling between 1 and the carboxylic acid-bearing PEG chain was performed using EDCI as a coupling agent. Overnight reaction at room temperature led to the complete consumption of the starting material but also the formation of degradation products. It was possible to separate 2 from the two unidentified impurities by precipitating it with a mixture of ethyl acetate and cyclohexane. The oxidation of 2 was performed using the peracid mCPBA. This lead to the formation of the methylsulfone 3 with a yield of 90%. Finally, PODS was obtained from 3 after the quantitative deprotection of the terminal amine using a solution of trifluoroacetic acid in dichloromethane. Solutions of PODS in DMSO were stable at room temperature and have been kept at room temperature for 5 months without any noticeable signs of degradation.

Data set [2] can be described thus: Reaction of PODS with model thiol Boc-L-cysteine (with TCEP). Particulars: pH 7.5, TCEP. As for the experimental part: In order to study the reactivity of PODS with thiols, Boc-L-cysteine was used as a model thiol in conjunction with the mild reducing agent tris(2-carboxyethyl)phosphine (TCEP), whose role was the reduction of any latent cystine species in solution (FIG. 2).
(§1) The reaction between PODS and Boc-L-cysteine was quantitative in less than 2 minutes at pH 7.5. See FIG. 3A, FIG. 3B and FIG. 3C. In a move toward a model closer to proteins and peptides, a tripeptide containing a central cysteine—glutathione—was reacted with PODS as well. Again, the conjugation reaction reached completion before the first measurement could be acquired (<3 min at pH 7.5).

Data set [3] is described as follows: Reaction of PODS with glutathione. Particulars: pH 7.5. As for the experimental part:
as §1

Take `CS(=O)(=O)c1nnc(-c2ccc(NC(=O)CCC(=O)NCCCOCCOCCOCCCN)cc2)o1` [PODS, N^1-(3-(2-(2-(3-Aminopropoxy)ethoxy)ethoxy)propyl)-N′-(4-(5-(methylsulfonyl)-1,3,4 oxadiazol-2-yl)phenyl)succinamide]: the “time kept without any noticeable signs of degradation” value in data set [1] is on record as ≥ 5 months. In data set [2], the “time to quantitative reaction with Boc-L-cysteine” value is listed as “less than 2 minutes”. Moreover, the “time to completion of conjugation reaction with glutathione” value in data set [3] was < 3 min.
